Publication PMC6847200 (2019)
Values belong to the molecule of their own block, whether it stands above or below them.

Columns and labels:
Test in all cases: ITC
Settings in all cases: 100 mM KCl, 20 mM MgCl2; 50 mM K-HEPES pH 7.5, 30 °C; apparent
[1] = tested on: xpt + U75C76 (RNA, riboswitch) GGACAUAUAAUCGCGUGGAUAUGGCACGCAAGUUUCUACCGGGCACCGUAAAUGUCCGUCACUAUGUCC
[2] = tested on: env23 (RNA, riboswitch) GGGUGUAAUUCGGGGGAUUGGCCCCGGAGUAUCCACGACCGGACCAUAAUCCGGUGCAUCCACCC
[3] = tested on: env1 Δ(U75,C76) (RNA, riboswitch) GGGUGUAAUCUCCAAAAUAUGGUUGGGGAGCCUCCACCAGUGAACCGUAAAAUCGCUGACCACCC
[4] = tested on: env1 C78A (RNA, riboswitch) GGGUGUAAUCUCCAAAAUAUGGUUGGGGAGCCUCCACCAGUGAACCGUAAAAUCGCUGUCAACACCC
[5] = tested on: env1 G21A,C79U (RNA, riboswitch) GGGUAUAAUCUCCAAAAUAUGGUUGGGGAGCCUCCACCAGUGAACCGUAAAAUCGCUGUCACUACCC
[6] = tested on: env1 C48A (RNA, riboswitch) GGGUGUAAUCUCCAAAAUAUGGUUGGGGAGCAUCCACCAGUGAACCGUAAAAUCGCUGUCACCACCC
[7] = tested on: env1 C51U (RNA, riboswitch) GGGUGUAAUCUCCAAAAUAUGGUUGGGGAGCCUCUACCAGUGAACCGUAAAAUCGCUGUCACCACCC
[8] = tested on: env1 (RNA, riboswitch) GGGUGUAAUCUCCAAAAUAUGGUUGGGGAGCCUCCACCAGUGAACCGUAAAAUCGCUGUCACCACCC
[9] = tested on: env6 (RNA, riboswitch) GGACGUAAUCCUCCGAACAGGCGGGGGAGCAUCCACCGCCGGGCCUUAACCCGGUGUAACCGUCC
[10] = tested on: env1 C47,48U (RNA, riboswitch) GGGUGUAAUCUCCAAAAUAUGGUUGGGGAGUUUCCACCAGUGAACCGUAAAAUCGCUGUCACCACCC
[11] = tested on: env1 A77U (RNA, riboswitch) GGGUGUAAUCUCCAAAAUAUGGUUGGGGAGCCUCCACCAGUGAACCGUAAAAUCGCUGUCUCCACCC
[12] = tested on: env1 U75A (RNA, riboswitch) GGGUGUAAUCUCCAAAAUAUGGUUGGGGAGCCUCCACCAGUGAACCGUAAAAUCGCUGACACCACCC
[13] = tested on: xpt U51C + U75C76 (RNA, riboswitch) GGACAUAUAAUCGCGUGGAUAUGGCACGCAAGUUUCCACCGGGCACCGUAAAUGUCCGUCACUAUGUCC
[14] = tested on: env30 (RNA, riboswitch) GGACGUAGCCUGGGGGAUUGGCCCCAGGGCAUCCACGAGCUGGCCGCAACUAGCUGAGACCGUCC

Structure (SMILES): O=c1[nH]cnc2nc[nH]c12
- KD,app [1]: 21000 ± 2000 nM

Structure (SMILES): Nc1nc2c(ncn2[C@H]2C[C@H](O)[C@@H](CO)O2)c(=O)[nH]1
- KD,2′-dG [2]: 290 ± 50 nM
- KD,dG [3]: 240 ± 50 nM
- KD,dG [4]: 41 000 ± 9000 nM
- KD,dG [5]: 570 ± 30 nM
- KD,dG [6]: 7.1 ± 1.4 nM
- KD,dG [7]: 620 ± 180 nM
- KD,2′-dG [8]: 34 ± 1 nM
- KD,2′-dG [9]: 88 ± 3 nM
- KD,dG [10]: 110 ± 10 nM
- KD,dG [11]: 250 ± 10 nM
- KD,dG [12]: 1600 ± 300 nM
- KD,app [1]: 8100 ± 600 nM
- KD,app [13]: 1600 ± 100 nM
- KD,2′-dG [14]: 2400 ± 900 nM

Structure (SMILES): Nc1nc2c(ncn2[C@@H]2O[C@H](CO)[C@@H](O)[C@H]2O)c(=O)[nH]1
- KD,rG [2]: 51 000 ± 4000 nM
- KD,rG [8]: 89 ± 10 nM
- KD,rG [14]: 36 000 ± 1000 nM

The remaining lines, values ahead:

- KD [8]: 2000 ± 100 nM
Structure (SMILES): Nc1nc2c(ncn2CCC(CO)CO)c(=O)[nH]1

- KD [8]: 560 ± 10 nM
Structure (SMILES): Nc1nc2c(ncn2COCCO)c(=O)[nH]1
